Reference: PubChem BioAssay (NCI)
≈ marks a conversion by molar mass, not a printed value.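 All cell lines were grown in 96-well plates and treated with compound for 48 hours. GI50: concentration for 50% inhibition of growth. TGI is the concentration that stops growth completely.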

Legend:
Test in all cases: NCI-60 cell line screen, 48 h
BT-549 breast = tested on: BT-549 breast
HS 578T breast = tested on: HS 578T breast
MDA-MB-435 = tested on: MDA-MB-435
MDA-N = tested on: MDA-N
NCI-H522 lung = tested on: NCI-H522 lung
PC-3 prostate = tested on: PC-3 prostate
SN12C renal = tested on: SN12C renal
HL-60(TB) leukemia = tested on: HL-60(TB) leukemia
T-47D breast = tested on: T-47D breast
ACHN renal = tested on: ACHN renal
DMS 273 small cell lung = tested on: DMS 273 small cell lung
KM20L2 colon = tested on: KM20L2 colon

SMILES	TGI (BT-549 breast)	TGI (HS 578T breast)	TGI (MDA-MB-435)	TGI (MDA-N) [µM]	TGI (NCI-H522 lung) [µM]	TGI (PC-3 prostate)	TGI (SN12C renal)	TGI (HL-60(TB) leukemia)	TGI (T-47D breast)	TGI (ACHN renal)	TGI (DMS 273 small cell lung) [µM]	TGI (KM20L2 colon) [µM]	GI50 (ACHN renal) [µg/mL]	GI50 (BT-549 breast) [µg/mL]	GI50 (HL-60(TB) leukemia) [µg/mL]	GI50 (HS 578T breast) [µg/mL]	GI50 (MDA-MB-435) [µg/mL]	GI50 (PC-3 prostate) [µg/mL]	GI50 (SN12C renal) [µg/mL]	GI50 (T-47D breast) [µg/mL]
COC(=O)C(Cc1cn(C(C)n2cc(CC(NC(C)=O)C(=O)OC)c3ccccc32)c2ccccc12)NC(C)=O (stereo not given)	> 100 µM	> 100 µM	> 100 µM	> 100	> 100	> 100 µM	> 100 µM													
O=c1oc2ccccc2c(O)c1Cc1ccc(Cc2c(O)c3ccccc3oc2=O)cc1	> 100 µM	> 100 µM	> 100 µM	> 100		> 100 µM	> 100 µM	> 100 µM	> 100 µM											
O=C(O)c1nc2ccc(C(F)(F)F)cc2[nH]c1=O	> 100 µM	> 100 µM	> 100 µM	> 100	> 100	> 100 µM	> 100 µM	> 100 µM	> 100 µM	> 100 µM										
COC(=O)CC(=O)OSc1ccccc1					12.8		27.1 µM			56.5 µM	41	42.2								
CCOC(=O)c1csc(NC(=O)C(C)N2CCCC2)n1 (stereo not given)			> 100 µM	> 100		> 100 µM			> 100 µM	> 100 µM										
CSCC[C@@H](NC(=O)[C@H](CC(C)C)NC(=O)C(Cc1cnc[nH]1)NC(=O)CNC(=O)[C@@H](NC(=O)[C@H](C)NC(=O)[C@H](Cc1c[nH]c2ccccc12)NC(=O)[C@H](CCC(N)=O)NC(=O)[C@@H](N)CC(N)=O)C(C)C)C(N)=O (stereo not given in full)					> 100		> 100 µM	> 100 µM			> 100	> 100								
CN(C)CCNC(=O)c1cccc2c1Nc1ccccc1S2							26.1 µM	19.2 µM			29.3	29.9								
O=C1NN(C2=NNC3(C(=O)N2)c2ccccc2-c2ccccc23)C(c2ccccc2)=N/C1=C/c1ccc(Cl)cc1	> 150 µg/mL	> 150 µg/mL	> 150 µg/mL			> 150 µg/mL	> 150 µg/mL	> 150 µg/mL	149 µg/mL	> 150 µg/mL			50.4 (≈ 92.5 µM)	150 (≈ 275 µM)	50.1 (≈ 91.9 µM)	47.7 (≈ 87.6 µM)	44.2 (≈ 81.2 µM)	44.7 (≈ 82.1 µM)	53.5 (≈ 98.2 µM)	13.4 (≈ 24.6 µM)
